Here are results for two compounds from patent US12285425B2, “Glucocorticoid receptor modulators to treat cervical cancer” (Corcept Therapeutics, Inc., priority 2017, dated 2025).

Some results are limits rather than exact numbers.

Experiment [1] concerns human HeLa cervical cancer cells. Description: Implanted HeLa cervical cancer tumor growth in mice, CORT125134 and paclitaxel. It is filed as in vivo. The protocol: Suspensions of human HeLa cervical cancer cells were injected subcutaneously into the right flank of 5-6 week old immunosuppressed female mice (BALB/c nude), five million cells per mouse. Tumors were allowed to grow until they reached a volume of 100-200 mm^3. Mice were then grouped into five groups, ten (10) per group. Group 1 was dosed with the paclitaxel vehicle (sterile saline) intravenously (i.v.) every 4 days and the CORT125134 vehicle orally (p.o.) (10% DMSO, 0.1% Tween 80 and 89.9% HPMC (0.5%), 10 ml/kg) every 4 days. Group 2 was dosed with paclitaxel (7.5 mg/kg) i.v. every 4 days. Group 3 was dosed with paclitaxel i.v. every 4 days and with CORT125134 (30 mg/kg) p.o. the day before the administration of paclitaxel and the same day as the administration of paclitaxel. Group 4 received paclitaxel (15 mg/kg) i.v. every 4 days. Group 5 received paclitaxel (15 mg/kg) i.v. every 4 days and CORT125134 (30 mg/kg) p.o. the day before and the day of paclitaxel (15 mg/kg) i.v. administration.
The longest (L) and shortest (S) diameters of the tumors were measured three times a week with electronic calipers and tumor volume was calculated using the formula for an ellipsoid sphere: S^2×L×(0.5). The tumor growth data are shown in FIG. 1, in which the mean tumor volume for each group of mice is plotted against the number of days of tumor growth since initiation of the treatment. All treatments provide benefit compared to vehicle alone.

The subject of a further experiment is MDA-MB-231 cells. Description: Triple negative breast cancer (TNBC) mouse xenograft model, CORT125134 with paclitaxel. It counts as in vivo, mice. The protocol:
MDA-MB-231 cells (10 million cells per mouse) were injected orthotopically in the right mammary fat pad in groups of female Balb/c nude mice. When the tumors reached a volume of 100-200 mm^3, the mice were randomized into groups of 10 and treatment was initiated. Mice were treated as follows: group 1 received vehicle daily, group 2 received paclitaxel 5 mg/kg i.v. every 4 days, group 3 received paclitaxel 5 mg/kg i.v. every 4 days and CORT125134 30 mg/kg p.o. daily. Tumor volumes were measured 3 times a week in 2 dimensions using a caliper and the volume expressed in mm^3 using the formula V=0.5 a×b2 where a and b are the long and short diameters of the tumor, respectively. Dosing was continued for 28 days, but any mouse in poor condition or with a tumor exceeding 3000 mm^3 was terminated. For comparison between two groups an independent sample t-test was used; for comparison among three or more groups a one-way ANOVA was performed followed by multiple comparison procedures. A p-value <0.05 was considered to be statistically significant. The effect of CORT125134 in combination with paclitaxel in a triple negative breast cancer (TNBC) mouse xenograft model is shown in FIG. 2. Data represent mean+SEM.

The subject of another experiment is SK-OV-3 cells. Description: Ovarian cancer mouse xenograft model, CORT125134 with gemcitabine/carboplatin. It is filed as in vivo, mice. The protocol: CORT125134 was administered intraperitoneally (i.p.) on days 43, 44, 50 and 51, and gemcitabine/carboplatin was administered i.p. on days 44 and 51. Data represent mean values. SK-OV-3 cells (5 million cells per mouse) were injected in the right flank of female Balb/c nude mice. When tumors reached a volume of 200 mm^3 the mice were randomized into groups of 10 and treatment was initiated. Mice were treated as follows: group 1 received vehicle on dosing days 1, 2, 8 and 9, group 2 received gemcitabine (80 mg/kg i.p.) and carboplatin (15 mg/kg i.p.) on dosing days 2 and 9 and group 3 received gemcitabine/carboplatin in the same regimen as group 2, +CORT125134 (20 mg/kg i.p.) on dosing days 1, 2, 8 and 9. Tumor volumes were measured 3 times a week and tumor volumes were calculated as detailed above. Any mouse in poor condition or with a tumor exceeding 2000 mm^3 was terminated. The results were analyzed as indicated in Example 2 above.

The subject of another experiment is 22Rv1 cells. Description: Prostate cancer (CRPC) mouse xenograft model, CORT125134 with castration. It counts as in vivo. Conditions: CORT125134 30 mg/kg p.o. daily for 21 days. As for the experimental part:
22Rv1 cells (10 million cells per mouse) were injected in the right flank of male Balb/c nude mice. When the tumors reached a volume of 100-200 mm^3 the mice were randomized into groups of 10 and then 2 of the 3 groups were castrated. Treatment was initiated the day after castration as follows: group 1 (not castrated) received vehicle, group 2 (castrated) received vehicle, and group 3 (castrated) received CORT125134 30 mg/kg orally (p.o.) daily for 21 days. Tumor volumes were measured 3 times a week as described previously. Any mouse in poor condition or with a tumor exceeding 3000 mm^3 was terminated. The results were analyzed as indicated in Example 2 above. Data represent mean+SEM.

A further experiment concerns cervical cancer. The experiment is described as follows: Treating a patient having cervical cancer with SGRM and a chemotherapeutic agent. It is filed as in vivo, human. Conditions: CORT125134 200 mg once a day for eight weeks with nab-paclitaxel 80 mg per square meter i.v. days 1, 8, 15 of 28-day cycle; one patient. As for the experimental part: A patient complains of upper abdomen pain. They are experiencing loss of appetite, nausea and vomiting episodes, and significant weight loss. […] The suspected tumor is confirmed by histological analysis to be a cancerous tumor. The patient is treated with CORT125134 at a dose of 200 mg once a day for eight weeks in combination with an intravenous infusion of nab-paclitaxel at a dose of 80 mg per square meter of body-surface area as an intravenous infusion over 30 minutes on days 1, 8, and 15 of every 28-day cycle. Tumor load is monitored using enhanced MRI before, during and after the treatment. The imaging indicate that tumor size is decreasing, and the reduction is more than 50% at the end of the treatment period.

Where [2] appears, read: paclitaxel 5 mg/kg i.v. every 4 days + CORT125134 30 mg/kg p.o. daily.
Where [3] appears, read: gemcitabine/carboplatin + CORT125134 20 mg/kg i.p.

`Cn1cc(S(=O)(=O)N2CCC3=Cc4c(cnn4-c4ccc(F)cc4)C[C@]3(C(=O)c3cc(C(F)(F)F)ccn3)C2)cn1` [CORT125134, (R)-(1-(4-fluorophenyl)-6-((1-methyl-1H-pyrazol-4-yl)sulfonyl)-4,4a,5,6,7,8-hexahydro-1H-pyrazolo[3,4-g]isoquinolin-4a-yl)(4-(trifluoromethyl)pyridin-2-yl)methanone]: the “p, tumor growth comparison Group 3 vs Group 5” value in experiment [1] (CORT125134 30 mg/kg + paclitaxel 15 mg/kg (Group 5) vs CORT125134 30 mg/kg + paclitaxel 7.5 mg/kg (Group 3)) was 0.0009. The “p, tumor growth comparison Group 2 vs Group 3” value in experiment [1] (CORT125134 30 mg/kg p.o. day before and day of paclitaxel + paclitaxel 7.5 mg/kg i.v. every 4 days (Group 3) vs paclitaxel 7.5 mg/kg alone (Group 2)) was 0.008. For the same compound, the “p, tumor growth comparison Group 4 vs Group 5” value in experiment [1] (CORT125134 30 mg/kg p.o. day before and day of paclitaxel + paclitaxel 15 mg/kg i.v. every 4 days (Group 5) vs paclitaxel 15 mg/kg alone (Group 4)) is recorded as below 0.0001. In experiment [1] (CORT125134 30 mg/kg p.o. with paclitaxel 7.5 or 15 mg/kg i.v., either dose of paclitaxel), the “tumor growth, combination of paclitaxel and CORT125134 compared with paclitaxel alone” value is recorded as “more effective than paclitaxel alone”. Further, in the experiment with MDA-MB-231 cells (setting [2]), the “p, combination compared to paclitaxel alone” value was below 0.05 and the “p, combination compared to vehicle treated mice” value is reported as below 0.05. Also, the “effect on tumor growth, combination of paclitaxel and CORT125134” value in the experiment on MDA-MB-231 cells (paclitaxel 5 mg/kg i.v. every 4 days + CORT125134 30 mg/kg p.o. daily, 28 days) is “significant inhibition of tumor growth”. In addition, the “effect on tumor growth, combination of gemcitabine/carboplatin with CORT125134” value in the experiment with SK-OV-3 cells (gemcitabine 80 mg/kg + carboplatin 15 mg/kg i.p. dosing days 2, 9 + CORT125134 20 mg/kg i.p. dosing days 1, 2, 8, 9) is “significant inhibition of tumor growth”. Moreover, in the experiment with SK-OV-3 cells (setting [3]), the “p, combination compared to vehicle” value was below 0.001 and the “p, combination compared with carboplatin/gemcitabine” value was below 0.01. For the same compound, in the experiment with 22Rv1 cells, the “effect on tumor growth, CORT125134 in castrated mice compared to mice not castrated” value is listed as “inhibited tumor growth” and the “p, CORT125134 in castrated mice compared to mice not castrated” value is reported as below 0.0001. Further, in the experiment with 22Rv1 cells (castrated mice), the “p, castration and CORT125134 vs castration alone” value was below 0.05; the “tumor growth, combination of castration and CORT125134 compared with castration alone” value is “more effective than castration alone”. In the experiment with cervical cancer, the “reduction of tumor size at the end of the treatment period (enhanced MRI)” value is on record as “more than 50%”.
In the case of `CC(=O)O[C@H]1C(=O)[C@@]2(C)[C@H]([C@H](OC(=O)c3ccccc3)[C@]3(O)C[C@H](OC(=O)[C@H](O)[C@@H](NC(=O)c4ccccc4)c4ccccc4)C(C)=C1C3(C)C)[C@]1(OC(C)=O)CO[C@@H]1C[C@@H]2O` [paclitaxel, reference compound], the “p, tumor growth comparison Group 1 vs Group 2” value in experiment [1] (paclitaxel 7.5 mg/kg i.v. every 4 days (Group 2) vs vehicle (Group 1)) was found to be 0.0281. Besides, the “p, tumor growth comparison Group 1 vs Group 4” value in experiment [1] (paclitaxel 15 mg/kg i.v. every 4 days (Group 4) vs vehicle (Group 1)) was 0.0006. For the same compound, the “p compared with vehicle treated mice, paclitaxel alone” value with MDA-MB-231 cells (paclitaxel 5 mg/kg i.v. every 4 days) is listed as “not significant”. The “effect on tumor growth, paclitaxel alone” value with MDA-MB-231 cells (paclitaxel 5 mg/kg i.v. every 4 days, 28 days) is recorded as “ineffective”.
